molecular target: IKZF2 (Helios) (Homo sapiens, UniProt Q96SW2+Q9UKS7); experiment: Prolabel quantification of IKZF2 protein levels in 293GT cells; format: cell-based; conditions: 24 h, Pro-label assay, 293GT cells, 10 μM, read-out: IKZF2 % protein reduction at 10 μM, 24 h
Sequence (Q9UKS7 whole entry): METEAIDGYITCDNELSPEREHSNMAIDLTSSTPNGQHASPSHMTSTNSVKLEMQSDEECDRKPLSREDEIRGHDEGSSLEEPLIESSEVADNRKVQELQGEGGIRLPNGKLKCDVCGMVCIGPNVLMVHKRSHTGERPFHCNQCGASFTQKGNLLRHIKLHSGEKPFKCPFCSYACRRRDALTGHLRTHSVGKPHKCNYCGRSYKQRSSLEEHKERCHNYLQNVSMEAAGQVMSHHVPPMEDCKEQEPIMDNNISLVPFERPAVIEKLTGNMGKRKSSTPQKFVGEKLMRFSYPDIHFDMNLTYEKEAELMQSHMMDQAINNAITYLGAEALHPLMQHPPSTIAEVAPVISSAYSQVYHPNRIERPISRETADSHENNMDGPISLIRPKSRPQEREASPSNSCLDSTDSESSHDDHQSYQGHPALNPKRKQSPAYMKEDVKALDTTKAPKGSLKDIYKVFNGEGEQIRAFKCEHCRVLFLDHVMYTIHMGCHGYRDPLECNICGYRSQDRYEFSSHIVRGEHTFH
Sequence (Q96SW2 whole entry): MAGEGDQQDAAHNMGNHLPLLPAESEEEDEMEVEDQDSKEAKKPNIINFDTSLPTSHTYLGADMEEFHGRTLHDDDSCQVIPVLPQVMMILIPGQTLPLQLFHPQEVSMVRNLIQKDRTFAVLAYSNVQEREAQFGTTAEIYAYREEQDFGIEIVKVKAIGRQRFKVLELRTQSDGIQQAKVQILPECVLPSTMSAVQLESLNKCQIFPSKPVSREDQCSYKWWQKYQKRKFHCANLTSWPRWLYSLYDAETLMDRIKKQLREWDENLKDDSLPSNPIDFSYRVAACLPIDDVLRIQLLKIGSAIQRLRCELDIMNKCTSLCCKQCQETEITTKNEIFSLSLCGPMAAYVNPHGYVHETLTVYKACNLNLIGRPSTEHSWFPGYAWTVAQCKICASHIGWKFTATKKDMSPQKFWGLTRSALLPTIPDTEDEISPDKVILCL
Sequence (Q16531 whole entry partner): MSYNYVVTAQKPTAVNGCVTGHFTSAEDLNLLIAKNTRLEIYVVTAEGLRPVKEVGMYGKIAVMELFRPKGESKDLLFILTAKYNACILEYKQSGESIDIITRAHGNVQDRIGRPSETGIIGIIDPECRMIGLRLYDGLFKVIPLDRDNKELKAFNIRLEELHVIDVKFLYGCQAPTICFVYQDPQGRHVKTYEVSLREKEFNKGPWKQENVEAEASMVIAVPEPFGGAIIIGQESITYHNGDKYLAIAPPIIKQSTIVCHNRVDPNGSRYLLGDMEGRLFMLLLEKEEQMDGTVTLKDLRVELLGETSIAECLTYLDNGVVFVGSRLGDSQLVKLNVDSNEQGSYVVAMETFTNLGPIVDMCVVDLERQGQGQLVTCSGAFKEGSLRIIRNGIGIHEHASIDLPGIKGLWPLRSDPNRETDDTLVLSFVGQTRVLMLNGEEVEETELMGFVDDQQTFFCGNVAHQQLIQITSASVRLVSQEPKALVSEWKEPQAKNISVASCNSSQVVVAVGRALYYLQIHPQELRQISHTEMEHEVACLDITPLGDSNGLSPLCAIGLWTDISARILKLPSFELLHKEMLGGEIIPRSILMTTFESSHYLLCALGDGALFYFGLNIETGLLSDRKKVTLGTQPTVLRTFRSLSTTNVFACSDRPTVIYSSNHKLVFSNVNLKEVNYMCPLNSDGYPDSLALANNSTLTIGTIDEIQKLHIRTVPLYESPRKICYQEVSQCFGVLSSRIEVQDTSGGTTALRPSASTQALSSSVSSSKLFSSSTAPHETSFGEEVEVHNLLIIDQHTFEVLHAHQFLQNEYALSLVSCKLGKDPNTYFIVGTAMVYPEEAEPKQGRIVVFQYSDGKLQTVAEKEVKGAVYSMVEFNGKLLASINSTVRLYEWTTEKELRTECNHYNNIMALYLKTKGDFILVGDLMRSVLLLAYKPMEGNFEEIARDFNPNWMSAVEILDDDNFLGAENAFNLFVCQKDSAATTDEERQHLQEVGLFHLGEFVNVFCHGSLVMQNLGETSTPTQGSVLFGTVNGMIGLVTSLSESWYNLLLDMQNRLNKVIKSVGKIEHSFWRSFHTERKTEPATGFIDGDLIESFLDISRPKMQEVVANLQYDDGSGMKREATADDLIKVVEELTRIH

In order of rising IKZF2 % protein reduction at 10 µM:
1. CC1(CN(CC2(C)COC2)[C@H]2CCC[C@@H]2Oc2ccc3c(c2)CN(C2CCC(=O)NC2=O)C3=O)COC1 (stereo partly drawn) [I-148, 3-(5-(((1S,2S)-2-(bis((3-methyloxetan-3-yl)methyl)amino)cyclopentyl)oxy)-1-oxoisoindolin-2-yl)piperidine-2,6-dione]  33%
2. O=C1CCC(N2Cc3cc(O[C@H]4CCC[C@@H]4N4CCc5ncccc5C4)ccc3C2=O)C(=O)N1 (stereo partly drawn) [I-190, 3-(5-(((1S,2S)-2-(7,8-dihydro-1,6-naphthyridin-6(5H)-yl)cyclopentyl)oxy)-1-oxoisoindolin-2-yl)piperidine-2,6-dione]  39%
3. O=C1CCC(N2Cc3cc(O[C@H]4CCC[C@@H]4N4CC5(COC5)C4)ccc3C2=O)C(=O)N1 (stereo partly drawn) [I-147, 3-(5-(((1S,2S)-2-(2-oxa-6-azaspiro[3.3]heptan-6-yl)cyclopentyl)oxy)-1-oxoisoindolin-2-yl)piperidine-2,6-dione]  44%
4. O=C1CCC(N2Cc3cc(O[C@H]4CCC[C@@H]4NCc4ccccn4)ccc3C2=O)C(=O)N1 (stereo partly drawn) [I-145, 3-(1-oxo-5-(((1S,2S)-2-((pyridin-2-ylmethyl)amino)cyclopentyl)oxy)isoindolin-2-yl)piperidine-2,6-dione]  52%
5. O=C1CCC(N2Cc3cc(O[C@H]4CCC[C@@H]4NCc4ccncc4)ccc3C2=O)C(=O)N1 (stereo partly drawn) [I-151, 3-(1-oxo-5-(((1S,2S)-2-((pyridin-4-ylmethyl)amino)cyclopentyl)oxy)isoindolin-2-yl)piperidine-2,6-dione]  53%
6. COC1CN([C@H]2CCC[C@@H]2Oc2ccc3c(c2)CN(C2CCC(=O)NC2=O)C3=O)C1 (stereo partly drawn) [I-157, 3-(5-(((1S,2S)-2-(3-methoxyazetidin-1-yl)cyclopentyl)oxy)-1-oxoisoindolin-2-yl)piperidine-2,6-dione]  61%
7. CCN(CC1COC1)[C@H]1CCC[C@@H]1Oc1ccc2c(c1)CN(C1CCC(=O)NC1=O)C2=O (stereo partly drawn) [I-155, 3-(5-(((1S,2S)-2-(ethyl(oxetan-3-ylmethyl)amino)cyclopentyl)oxy)-1-oxoisoindolin-2-yl)piperidine-2,6-dione]  65%
8. O=C1CCC(N2Cc3cc(O[C@H]4CCC[C@@H]4N4Cc5ccccc5C4)ccc3C2=O)C(=O)N1 (stereo partly drawn) [I-156, 3-(5-(((1S,2S)-2-(isoindolin-2-yl)cyclopentyl)oxy)-1-oxoisoindolin-2-yl)piperidine-2,6-dione]  70%
9. CO[C@H]1CC[C@H](CN(C)[C@H]2CCC[C@@H]2Oc2ccc3c(c2)CN(C2CCC(=O)NC2=O)C3=O)CC1 (stereo partly drawn) [I-171, 3-(5-(((1S,2S)-2-((((1R,4S)-4-methoxycyclohexyl)methyl)(methyl)amino)cyclopentyl)oxy)-1-oxoisoindolin-2-yl)piperidine-2,6-dione]  74%
10. CO[C@H]1CC[C@H](CN[C@H]2CCC[C@@H]2Oc2ccc3c(c2)CN(C2CCC(=O)NC2=O)C3=O)CC1 (stereo partly drawn) [I-159, 3-(5-(((1S,2S)-2-((((1r,4S)-4-methoxycyclohexyl)methyl)amino)cyclopentyl)oxy)-1-oxoisoindolin-2-yl)piperidine-2,6-dione]  75%
11. O=C1CCC(N2Cc3cc(O[C@H]4CCC[C@@H]4N4CCCOCCC4)ccc3C2=O)C(=O)N1 (stereo partly drawn) [I-167, 3-(5-(((1S,2S)-2-(1,5-oxazocan-5-yl)cyclopentyl)oxy)-1-oxoisoindolin-2-yl)piperidine-2,6-dione]  75%
12. CC1CCN([C@H]2CCC[C@@H]2Oc2ccc3c(c2)CN(C2CCC(=O)NC2=O)C3=O)CC1 (stereo partly drawn) [I-149, 3-(5-(((1S,2S)-2-(4-methylpiperidin-1-yl)cyclopentyl)oxy)-1-oxoisoindolin-2-yl)piperidine-2,6-dione]  77%
13. CCN(CC1CC(C)(C#N)C1)[C@H]1CCC[C@@H]1Oc1ccc2c(c1)CN(C1CCC(=O)NC1=O)C2=O (stereo partly drawn) [I-163, 3-((((1S,2S)-2-((2-(2,6-dioxopiperidin-3-yl)-1-oxoisoindolin-5-yl)oxy)cyclopentyl)(ethyl)amino)methyl)-1-methylcyclobutane-1-carbonitrile]  78%
14. COC1CCC(CN[C@H]2CCC[C@@H]2Oc2ccc3c(c2)CN(C2CCC(=O)NC2=O)C3=O)CC1 (stereo partly drawn) [I-161, 3-(5-(((1S,2S)-2-(((4-methoxycyclohexyl)methyl)amino)cyclopentyl)oxy)-1-oxoisoindolin-2-yl)piperidine-2,6-dione]  80%
15. CCN(C[C@H]1C[C@@H](OC)C1)[C@H]1CCC[C@@H]1Oc1ccc2c(c1)CN(C1CCC(=O)NC1=O)C2=O (stereo partly drawn) [I-180, 3-(5-(((1S,2S)-2-(ethyl(((1s,3R)-3-methoxycyclobutyl)methyl)amino)cyclopentyl)oxy)-1-oxoisoindolin-2-yl)piperidine-2,6-dione]  81%
16. COC1(C)CCN([C@H]2CCC[C@@H]2Oc2ccc3c(c2)CN(C2CCC(=O)NC2=O)C3=O)CC1 (stereo partly drawn) [I-152, 3-(5-(((1S,2S)-2-(4-methoxy-4-methylpiperidin-1-yl)cyclopentyl)oxy)-1-oxoisoindolin-2-yl)piperidine-2,6-dione]  82%
17. CCOC1(C)CCN([C@H]2CCC[C@@H]2Oc2ccc3c(c2)CN(C2CCC(=O)NC2=O)C3=O)CC1 (stereo partly drawn) [I-158, 3-(5-(((1S,2S)-2-(4-ethoxy-4-methylpiperidin-1-yl)cyclopentyl)oxy)-1-oxoisoindolin-2-yl)piperidine-2,6-dione]  82%
18. O=C1CCC(N2Cc3cc(O[C@H]4CCC[C@@H]4N4CCCC4)ccc3C2=O)C(=O)N1 (stereo partly drawn) [I-146, 3-(1-oxo-5-(((1S,2S)-2-(pyrrolidin-1-yl)cyclopentyl)oxy)isoindolin-2-yl)piperidine-2,6-dione]  83%
19. COC1CCN([C@H]2CCC[C@@H]2Oc2ccc3c(c2)CN(C2CCC(=O)NC2=O)C3=O)CC1 (stereo partly drawn) [I-154, 3-(5-(((1S,2S)-2-(4-methoxypiperidin-1-yl)cyclopentyl)oxy)-1-oxoisoindolin-2-yl)piperidine-2,6-dione]  83%
20. O=C1CCC(N2Cc3cc(O[C@H]4CCC[C@@H]4NCC4CCC(F)(F)CC4)ccc3C2=O)C(=O)N1 (stereo partly drawn) [I-173, 3-(5-(((1S,2S)-2-(((4,4-difluorocyclohexyl)methyl)amino)cyclopentyl)oxy)-1-oxoisoindolin-2-yl)piperidine-2,6-dione]  84%
21. O=C1CCC(N2Cc3cc(O[C@H]4CCC[C@@H]4NCc4ccc5[nH]ccc5c4)ccc3C2=O)C(=O)N1 (stereo partly drawn) [I-174, 3-(5-(((1S,2S)-2-(((1H-indol-5-yl)methyl)amino)cyclopentyl)oxy)-1-oxoisoindolin-2-yl)piperidine-2,6-dione]  86%
22. O=C1CCC(N2Cc3cc(O[C@H]4CCC[C@@H]4N4CC(Oc5ccccc5Cl)C4)ccc3C2=O)C(=O)N1 (stereo partly drawn) [I-177, 3-(5-(((1S,2S)-2-(3-(2-chlorophenoxy)azetidin-1-yl)cyclopentyl)oxy)-1-oxoisoindolin-2-yl)piperidine-2,6-dione]  92%
23. COc1ccccc1OC1CN([C@H]2CCC[C@@H]2Oc2ccc3c(c2)CN(C2CCC(=O)NC2=O)C3=O)C1 (stereo partly drawn) [I-178, 3-(5-(((1S,2S)-2-(3-(2-methoxyphenoxy)azetidin-1-yl)cyclopentyl)oxy)-1-oxoisoindolin-2-yl)piperidine-2,6-dione]  92%

same assay, conditions: 24 h, read-out: IKZF2 % protein reduction at 10 μM, 24 h

In order of falling IKZF2 % protein reduction at 10 µM:
1. O=C1CCC(N2Cc3cc(O[C@H]4CCC[C@@H]4N4CCC(OCC5CC5)CC4)ccc3C2=O)C(=O)N1 (stereo partly drawn) [I-186, 3-(5-(((1S,2S)-2-(4-(cyclopropylmethoxy)piperidin-1-yl)cyclopentyl)oxy)-1-oxoisoindolin-2-yl)piperidine-2,6-dione]  86%
2. CC1(C)CCN([C@H]2CCC[C@@H]2Oc2ccc3c(c2)CN(C2CCC(=O)NC2=O)C3=O)CC1 (stereo partly drawn) [I-153, 3-(5-(((1S,2S)-2-(4,4-dimethylpiperidin-1-yl)cyclopentyl)oxy)-1-oxoisoindolin-2-yl)piperidine-2,6-dione]  85%
3. O=C1CCC(N2Cc3cc(O[C@H]4CCC[C@@H]4N4CCC(F)CC4)ccc3C2=O)C(=O)N1 (stereo partly drawn) [I-166, 3-(5-(((1S,2S)-2-(4-fluoropiperidin-1-yl)cyclopentyl)oxy)-1-oxoisoindolin-2-yl)piperidine-2,6-dione]  81%
4. CC(C)OC1CCN([C@H]2CCC[C@@H]2Oc2ccc3c(c2)CN(C2CCC(=O)NC2=O)C3=O)CC1 (stereo partly drawn) [I-187, 3-(5-(((1S,2S)-2-(4-isopropoxypiperidin-1-yl)cyclopentyl)oxy)-1-oxoisoindolin-2-yl)piperidine-2,6-dione]  79%
5. N#C[C@H]1CC[C@H](CN[C@H]2CCC[C@@H]2Oc2ccc3c(c2)CN(C2CCC(=O)NC2=O)C3=O)CC1 (stereo partly drawn) [I-160, (1S,4r)-4-((((1S,2S)-2-((2-(2,6-dioxopiperidin-3-yl)-1-oxoisoindolin-5-yl)oxy)cyclopentyl)amino)methyl)cyclohexane-1-carbonitrile]  75%
6. O=C1CCC(N2Cc3cc(O[C@H]4CCC[C@@H]4N4C[C@@H]5[C@H](C4)[C@H]4CC[C@@H]5O4)ccc3C2=O)C(=O)N1 (stereo partly drawn) [I-188, 3-(5-(((1S,2S)-2-((3aR,4R,7S,7aS)-octahydro-2H-4,7-epoxyisoindol-2-yl)cyclopentyl)oxy)-1-oxoisoindolin-2-yl)piperidine-2,6-dione]  70%
7. CCOC1CCN([C@H]2CCC[C@@H]2Oc2ccc3c(c2)CN(C2CCC(=O)NC2=O)C3=O)CC1 (stereo partly drawn) [I-189, 3-(5-(((1S,2S)-2-(4-ethoxypiperidin-1-yl)cyclopentyl)oxy)-1-oxoisoindolin-2-yl)piperidine-2,6-dione]  70%
8. CCN(C[C@H]1CC[C@H](OC)CC1)[C@H]1CCC[C@@H]1Oc1ccc2c(c1)CN(C1CCC(=O)NC1=O)C2=O (stereo partly drawn) [I-170, 3-(5-(((1S,2S)-2-(ethyl(((1r,4S)-4-methoxycyclohexyl)methyl)amino)cyclopentyl)oxy)-1-oxoisoindolin-2-yl)piperidine-2,6-dione]  67%
9. O=C1CCC(N2Cc3cc(O[C@H]4CCC[C@@H]4NCc4cccnc4)ccc3C2=O)C(=O)N1 (stereo partly drawn) [I-150, 3-(1-oxo-5-(((1S,2S)-2-((pyridin-3-ylmethyl)amino)cyclopentyl)oxy)isoindolin-2-yl)piperidine-2,6-dione]  51%
